Results reported in patent US10555894B2, “Plant extract comprising sucrose esters as an active agent for use in cosmetic, dermatological or nutricosmetic composition” (COSMO INTERNATIONAL INGREDIENTS, priority 2014, dated 2020).

Tests used:
[1] = system: normal human epidermal melanocytes (NHEM); test: Synthesis of melanin in melanocytes stimulated by L-tyrosine; format: cell-based; settings: L-tyrosine 1 mM, 10 days, tested at 5 μg/ml
Method: The depigmentation effect potential of the Uchuva extract has been researched in a model of normal human epidermal melanocytes (NHEM). The effect of the Uchuva extract on the synthesis of melanin has been evaluated after ten incubation days under conditions stimulated by L-tyrosine. In this test, the reference inhibitory molecule is lipoic acid. Its action mechanism calls for an inhibition of the expression of the MITF transcription factor (microphthalmia-associated transcription factor). This transcription factor is the major regulator of the expression of tyrosinase and its inhibition results in the reduction of the expression of tyrosinase, enzyme involved in the melanin synthesis. The melanocytes have been sown in 24 wells plate and cultivated in the culture medium for 24 hours. […] After incubation, the melanin has been extracted by lysis of the cells with a solution of NaOH 0.5 N. The optical density (OD) of the samples has been measured at 405 nm, then the quantity of melanin has been determined in comparison with a range of exogenous melanin (melanin curve including standards from 0.39 to 100 μg/ml). […] After dissociation of the cells and solubilisation of the formazan by addition of DMSO, the optical density (OD), which represents the number of living cells and their metabolic activity, has been measured with a 540 nm microplate reader (VERSAmax, Molecular Devices).

[2] = system: coding genes for differentiation proteins of the keratinocyte in normal human epidermal keratinocytes (NHEK); test: Transcriptomic analysis (Affymetrix U219 chip) of treated keratinocytes; format: cell-based; settings: 0.8 μg/ml; for expression of coding genes for differentiation proteins of the keratinocyte: KRT1, IVL, DSG1, DSC1, SPRR2A, SPRR2E, SPRR1A, SPRR2D, CALML5, SBSN and KRTDAP: 4 or 24 hours; for effect on the differentiation of the keratinocytes: deduced from gene expression
Method: (§1) The effects of fractions I, II and […] have been researched on by transcriptomic analysis on models of normal human epidermal keratinocytes and human dermal fibroblasts. This global transcript expression analysis has been carried out after 4 to 24 hours of incubation by using the Affymetrix GeneAtlas™ platform and the U219 “full human transcriptome” chip containing 36,000 transcripts and variants.
(§2) • Cellular type: Normal human epidermal keratinocytes (NHEK) • Culture conditions: 37° C., 5% CO2 • Culture medium: Keratinocyte-SFM supplemented with Epidermal Growth Factor (EGF) 0.25 ng/ml Pituitary Extract (PE) 25 μg/ml Gentamycin 25 μg/ml • Test medium: Keratinocyte-SFM supplemented with Gentamycin 25 μg/ml Normal Human Dermal Fibroblasts (NHDF) • Cellular type: Normal human dermal fibroblasts (NHDF), • Culture conditions: 37° C., 5% CO2 • Culture medium: DMEM supplemented with • L-glutamine 2 mM • Penicillin 50 U/ml—Streptomycin 50 μg/ml • Calf foetal serum (CFS) 10% • Test medium: DMEM supplemented with • L-glutamine 2 mM • Penicillin 50 U/ml—Streptomycin 50 μg/ml • CFS 1% 2. Tested Compounds
The cells have been introduced and cultivated in the culture medium for 24 hours and then incubated in their test medium for another 24 hours. Then, the medium has been replaced by the test medium containing or not containing (control) the test compounds and the cells have been incubated for 4 or 24 hours. All the conditions have been completed in n=3.
At the end of the incubation, the culture supernatants have been removed and the cell layers have been rinsed with a PBS solution. The plates have been immediately dry frozen at −80° C.
The total RNA of each sample have been extracted using TriPure Isolation Reagent® as per the protocol recommended by the supplier. The quantity and quality of the RNA have been evaluated by capillary electrophoresis (Bioanalyzer 2100, Agilent).
The amplification of the RNA and the synthesis of the biotinylated RNA analogues (RNAa) have been carried out using the “GeneChip 3'IVT Express” kit (Affymetrix®). The single-strand complementary DNA (cDNA) have been synthesised by reverse transcription of the total RNA in the presence of oligo(dT). By action of a DNA polymerase, a double-stranded cDNA (ds DNA) has been synthesised. Biotinylated RNA have then been synthesised from the cDNA and in the presence of biotinylated ribonucleotide analogues. After a purification stage on magnetic beads, which enables to remove salts, enzymes and free nucleotides, the biotinylated RNA have been hydrolysed into fragments from 35 to 200 nucleotides with a peak at 100-120 nucleotides (fragmented targets). […]

[3] = system: coding gene for fibrillin 1 (FBN1) in normal human dermal fibroblasts (NHDF); test: Transcriptomic analysis (Affymetrix U219 chip) of treated fibroblasts; format: cell-based; settings: 0.8 μg/ml
Method: as §1
as §2, with “Compounds […]” for “Compounds”
The total RNA of each sample have been extracted using TriPure Isolation Reagent® as per the protocol recommended by the supplier. The quantity and quality of the RNA have been evaluated by capillary electrophoresis (Bioanalyzer 2100, Agilent). […]

[4] = system: Collagen IV; test: Expression of Collagen IV in fibroblasts by immunocytology, fluorescence scoring; format: cell-based, human; settings: positive control element, 48 hours
Method: The two concentrations of 4.10-5% and 8.10-5% of the Uchuva extract have been tested.
The cells are introduced on D0, in Millicell 8 wells slides, at a rate of 4.103 cells per ml in 400 μl of complete medium. They are treated on D1 for 48 hours with culture in a complete medium. The concentrations of the active to be tested are expressed in % of the extract. The stock solution of the extract has been prepared in DMSO with 20% concentration (w/v). The first dilution has been made to 1/1000th. The following dilutions have been made while maintaining the final DMSO concentration at 0.1%. After 48 hours, the cells are fixed by an alcohol/acid mixture. Then, the cells are marked using an anti-collagen IV antibody (Rockland) diluted in PBS+BSA/tween to 1/50 for 1 hour. The slides are then rinsed twice by PBS. The revelation of the specific marking is done using an FITC coupled secondary antibody (Santa-Cruz) diluted in PBS+BSA/tween to 1/100 for 1 hour. The slides are then rinsed twice by PBS and put between the slide and the cover glass using the RotiMount Fluocare+DAPI (Roth) mounting fluid.
Photos in green and blue are taken using a DP72 camera (Olympus, Japan) connected to a BX-60 epifluorescence microscope (Olympus, Japan).
The photos have been observed by two readers and a scoring of the intensity of fluorescence has done on a linear scale from 0 (no marking) to 4 (very high marking). […]

| SMILES | expression of coding genes for differentiation proteins of the keratinocyte: KRT1, IVL, DSG1, DSC1, SPRR2A, SPRR2E, SPRR1A, SPRR2D, CALML5, SBSN and KRTDAP [2] | effect on the differentiation of the keratinocytes [2] | further results |
| --- | --- | --- | --- |
| O=C(O)CCCC[C@@H]1CCSS1 (racemic) [lipoic acid] | – | – | inhibition of the synthesis of melanin [1]: 108% |
| CCCCCCCCCC(=O)O[C@H]1[C@@H](O[C@]2(CO)O[C@H](CO)[C@@H](O)[C@@H]2OC(=O)C(C)C)O[C@H](CO)[C@@H](OC(=O)C(C)C)[C@@H]1OC(=O)C(C)C [Fraction I, 3-O-(2-methyl-1-oxopropyl)-β-D-fructofuranosyl (1→2)-3,4-bis(2-methylpropanoate)-2-decanoate-α-D-glucopyranoside] | expression inhibitions | anti differentiating effect | – |
| CCCCCCCCCC(=O)O[C@H]1[C@@H](O[C@]2(CO)O[C@H](CO)[C@@H](O)[C@@H]2OC(=O)CC(C)C)O[C@H](CO)[C@@H](OC(=O)C(C)C)[C@@H]1OC(=O)C(C)C [Fraction II, 3-O-(3-methyl-1-oxobutyl)-β-D-fructofuranosyl (1→2)-3,4-bis(2-methylpropanoate)-2-decanoate-α-D-glucopyranoside] | expression inhibitions | anti differentiating effect | expression of the coding gene for fibrillin 1 (FBN1), fold change ([3]; 4 hours): 3.27 X; expression of the coding gene for fibrillin 1 (FBN1), fold change ([3]; 24 hours): 8.24 X |
| C[C@H](O)[C@H](O)[C@@H](O)[C@@H](O)C=O [rhamnose] | – | – | increase in expression of Collagen IV, amplitude compared with the Uchuva extract [4]: comparable |
